Laboratory results: PMC3665789 (PLoS ONE, 2013)

Assays:
HSV = conditions: read-out: anti-HSV activity EC50 range; range over HSV-1 and HSV-2 strains; CPE in HEL cells
PBMCs = assay: Bio-Plex cytokine/chemokine detection assay; assay type: cell-based; conditions: 24 h; 9.6 µM LabyA1 versus 0.078 µM PHA; 27-plex
Description: Freshly isolated PBMCs from 4 individual donors were incubated for 24 h with 9.6 µM LabyA1 or 0.078 µM PHA. The cytokine/chemokine concentration in the cell culture supernatant was determined by the Bio-Plex 200 System (Bio-Rad, Hercules, CA) using the Bio-Plex Human Cytokine 27-Plex assay as described earlier.

[1] = test system: HIV-1 ETH2220 (clinical isolate; R5); conditions: PBMCs; ETH2220, group M subtype C; p24 Ag ELISA
CXCR4 = CXCR4 (Homo sapiens, UniProt P61073); assay: Anti-CXCR4 mAb binding on SupT1 cells (flow cytometry); set-up: endogenous in cells; host or cells: SupT1 T cells (ATCC)
Description: To determine the interaction of LabyA1 with CD4, SupT1 cells (100 µl; 3×10^6 cells/ml) were incubated for 20 min at 4°C with 9.6 µM, 1.9 µM or 0 µM LabyA1. After extensive washing with PBS/FCS2% (PBS supplemented with 2% FCS), anti-CD4-PE conjugated mAbs RPA-T4 (eBioscience, Vienna, Austria), MT441 (Ancell, Enzo Life sciences) and OKT-4 (eBioscience) were added for 30 min at 4°C. For aspecific background staining, cells were incubated with SimulTest™ Control (IgGγ1-FITC/IgGγ2a-PE) (BD Biosciences). After washing, and fixation with 1% formaldehyde solution, samples were analyzed using the FACSCalibur and CellQuest software (BD Biosciences). The same protocol was applied for anti-CXCR4 evaluation using the fluorochrome conjugated mAbs 12G5-PE and 2B11-FITC (both BD Biosciences).

[2] = test system: HIV-1 US2 (clinical isolate; R5/X4); conditions: PBMCs; US2, group M subtype B; p24 Ag ELISA
R5 HIV-1 gp120 ADA = assay: Surface plasmon resonance; assay type: binding; conditions: SPR, immobilized gp120 ADA, 25°C
Description: Recombinant gp120 proteins from X4 HIV-1 IIIB strain (ImmunoDiagnostics Inc., Woburn, MA) and from R5 HIV-1 strains ADA and YU2 (ImmunoDiagnostics Inc.) were covalently immobilized on a CM5 sensor chip in 10 mM sodium acetate, pH 4.0, using standard amine coupling chemistry. The chip densities were 8200 resonance units (RUs), 10760 RUs and 9626 RUs, respectively. A reference flow cell was used as a control for non-specific binding and refractive index changes. All interaction studies were performed at 25°C on a Biacore T200 instrument (GE Healthcare, Uppsala, Sweden). The compounds LabyA1 and nisin were serially diluted in HBS-P (10 mM HEPES, 150 mM NaCl and 0,05% surfactant P20; pH 7.4) supplemented with 5% dimethyl sulfoxide (DMSO, Merck), and 10 mM CaCl2 covering a concentration range between 7.8 and 31.3 µM, by using two-fold dilution steps. Samples (in duplicate) were injected for 2 minutes at a flow rate of 45 µl/min and the dissociation was followed for 4 minutes. Several buffer blanks were used for double referencing. The CM5 sensor chip surface was regenerated with a single injection of 50 mM NaOH. A DMSO concentration series was included to eliminate the contribution of DMSO to the measured response. […] The experimental data were fit using the 1∶1 binding model Biacore T200 Evaluation software 1.0 to determine the binding kinetics.

Sequence of CXCR4 (P61073 whole entry): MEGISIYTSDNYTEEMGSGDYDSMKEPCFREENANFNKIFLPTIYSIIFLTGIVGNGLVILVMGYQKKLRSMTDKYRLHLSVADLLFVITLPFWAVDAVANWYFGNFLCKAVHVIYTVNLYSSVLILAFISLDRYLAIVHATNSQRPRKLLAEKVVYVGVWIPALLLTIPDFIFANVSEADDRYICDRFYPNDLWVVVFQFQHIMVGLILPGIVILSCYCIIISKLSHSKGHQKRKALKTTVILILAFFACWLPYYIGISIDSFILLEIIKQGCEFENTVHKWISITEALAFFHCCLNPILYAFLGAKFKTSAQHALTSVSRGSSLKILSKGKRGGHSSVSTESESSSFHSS

## C/C=C1\NC(=O)[C@H](Cc2ccccc2)NC(=O)[C@@H]2CCCN2C(=O)[C@H](C(C)C)NC(=O)[C@H](Cc2c[nH]c3ccccc23)NC(=O)[C@]23CSC[C@H](NC1=O)C(=O)N[C@H](C(=O)O)CSSC[C@H](NC(=O)[C@@H]1CSC[C@]4(C[C@H](N)C(=O)N[C@@H](CC(N)=O)C(=O)N[C@@H](C)C(=O)N4)C(=O)N[C@@H](C(C)C)C(=O)N[C@@H](Cc4c[nH]c5ccccc45)C(=O)N[C@@H](CCC(=O)O)C(=O)N1)C(=O)N[C@@H](C2)C(=O)N[C@@H]([C@@H](C)O)C(=O)NCC(=O)N3 [LabyA1, labyrinthopeptin A1]
HSV
  EC50: 290 to 2800 nM
PBMCs
  cytokine/chemokine response of treated PBMCs: much weaker, if any
[1]
  EC50: 780 ± 60 nM
CXCR4; SupT1 cells, 9.6 µM and 1.9 µM
  inhibition of binding of anti-CXCR4 mAb 12G5: unable to inhibit
CXCR4; data not shown
  binding of anti-CXCR4 mAbs clone 12G5 and 2B11 to CXCR4: did not affect the binding
[2]
  EC50: 700 ± 190 nM
R5 HIV-1 gp120 ADA
  Kd: 12300 ± 2200 nM
